Structures are written as SMILES.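 Results reflect a 48-hour exposure of cells in 96-well plates to compound at five concentrations. Definition used: TGI = concentration required for complete inhibition of growth.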 *1 amine or outer side, *2 acyl side, *3 side chain or, on linkers, in order; H or OH if unused. Where a SMILES comes first, the peptide text is derived from it. Bridges are numbered along the chain shown (N, C = ends). Roman numbers before positions name the chains, in order. [ ]: non-standard residue; d: D form. Actinocin(9to1) = Cc1c2oc3c(C)ccc(C(=O)[*:1])c3nc-2c(C(=O)[*:2])c(N)c1=O; NMeV = CN[CH](C(=O)O)C(C)C; Sar = CNCC(=O)O

Drawing on PubChem BioAssay (NCI), this text covers TGI for 15 compounds.

Test systems include SK-MEL-5 melanoma; MDA-MB-435; CAKI-1 renal; T-47D breast; OVCAR-3 ovarian; RXF 393 renal; U251 CNS; SF-539 CNS; NCI-H23 lung; MOLT-4 leukemia.
What all share (test): DTP human tumour cell line panel, 48 h

As usually defined, the TGI is the concentration at which net growth stops. In the case of `C=C(CC[C@@H](C(=O)O)[C@H]1[C@H](O)C[C@@]2(C)C3=CC[C@@H](C(=C)C)[C@](C)(CCC(=O)O)C3=CC[C@]12C)C(C)C`, the TGI in the assay with SK-MEL-5 melanoma is 36.3 µM; in the assay with MDA-MB-435 it was 33.5 µM; in the assay on CAKI-1 renal it was 28.9 µM; in the assay on T-47D breast, 50.7 µM; in the assay with OVCAR-3 ovarian it was 33.2 µM; in the assay on RXF 393 renal, 34.5 µM. The TGI in the assay with U251 CNS worked out at 32.8 µM; with SF-539 CNS it was 37.7 µM; with NCI-H23 lung, 31.6 µM; in the assay with MOLT-4 leukemia it was 64.4 µM.

As for `Cc1[nH]c2ccccc2c1C=Nc1ccc(N=Cc2c(C)[nH]c3ccccc23)cc1`, the concentration for total growth inhibition (TGI) with SK-MEL-5 melanoma was 93.8 µM; in the assay on MDA-MB-435, 51.7 µM; in the assay on CAKI-1 renal, greater than 100 µM; in the assay on T-47D breast, greater than 100 µM; in the assay with OVCAR-3 ovarian it was greater than 100 µM; in the assay on RXF 393 renal it was greater than 100 µM. Besides, the TGI in the assay with U251 CNS was greater than 100 µM; in the assay with SF-539 CNS, greater than 100 µM; with NCI-H23 lung, greater than 100 µM; with MOLT-4 leukemia, 43.1 µM.

For the compound `NC(=O)c1ccc2c(c1)S(=O)(=O)c1ccccc1C2=O`, the total growth inhibition concentration (TGI) in the assay on SK-MEL-5 melanoma, with MDA-MB-435, with CAKI-1 renal, with T-47D breast, with OVCAR-3 ovarian and in the assay on RXF 393 renal was greater than 100 µM each time. The total growth inhibition concentration (TGI) with U251 CNS, in the assay on SF-539 CNS, in the assay with NCI-H23 lung and with MOLT-4 leukemia was greater than 100 µM each time.

As for `COc1ccc(N=N/C(=N/NC(=O)c2ccccc2)c2ccc(N(CCC#N)CCC#N)cc2C)cc1`, the TGI with SK-MEL-5 melanoma, in the assay with MDA-MB-435, with CAKI-1 renal, with T-47D breast, in the assay on OVCAR-3 ovarian and in the assay on RXF 393 renal was greater than 100 µM each time. Besides, the TGI was greater than 100 µM in the assay with U251 CNS, 70 µM in the assay on SF-539 CNS, greater than 100 µM in the assay with NCI-H23 lung and greater than 100 µM in the assay with MOLT-4 leukemia.

Turning to `C(=C\c1ccccc1)/C=N/c1nc2cc3sc(/N=C/C=C/c4ccccc4)nc3cc2s1`, the concentration for total growth inhibition (TGI) with SK-MEL-5 melanoma, in the assay on MDA-MB-435, in the assay on CAKI-1 renal, with T-47D breast, in the assay on OVCAR-3 ovarian and with RXF 393 renal was greater than 100 µM in each case. The TGI was greater than 100 µM in the assay with U251 CNS, greater than 100 µM in the assay on SF-539 CNS, greater than 100 µM in the assay on NCI-H23 lung and greater than 76.1 µM in the assay on MOLT-4 leukemia.

In the case of `Cc1c2oc3c(C)ccc(C(=O)NC4C(=O)NC(C(C)O)C(=O)N5CCCC5C(=O)N(C)CC(=O)N(C)C(C(C)C)C(=O)OC4C)c3nc-2c(C(=O)NC2C(=O)NC(C(C)O)C(=O)N3CCCC3C(=O)N(C)CC(=O)N(C)C(C(C)C)C(=O)OC2C)c(N)c1=O` (stereo not given) (I: TTP[Sar][NMeV] / II: TTP[Sar][NMeV]; ester I:1-I:C, II:1-II:C; linker I:N-II:N via Actinocin(9to1); configuration not given here), the total growth inhibition concentration (TGI) with SK-MEL-5 melanoma was 1.74 µM; in the assay with MDA-MB-435, 3.81 µM; with CAKI-1 renal it was greater than 100 µM; with T-47D breast, greater than 100 µM; in the assay with OVCAR-3 ovarian, 4.71 µM; with RXF 393 renal, 1.29 µM. Further, the TGI in the assay on U251 CNS is greater than 100 µM; with SF-539 CNS it was 1.44 µM; with NCI-H23 lung, 4.8 µM; in the assay on MOLT-4 leukemia, 0.598 µM.

Consider `CN(C)CCNC(=O)c1cccc2nc3c(nc12)-c1ccccc1C3=O`, for which the concentration for total growth inhibition (TGI) was determined as 25.1 µM with SK-MEL-5 melanoma; 32.1 µM in the assay on MDA-MB-435; 66.4 µM in the assay with CAKI-1 renal; 37.4 µM in the assay with T-47D breast; 43.2 µM in the assay with OVCAR-3 ovarian; 34.4 µM in the assay with RXF 393 renal. For the same compound, the concentration for total growth inhibition (TGI) stood at 45.6 µM with U251 CNS, 27 µM in the assay with SF-539 CNS, 35.4 µM with NCI-H23 lung and 7.52 µM with MOLT-4 leukemia.

Take `CCOC(=O)/C=C(/C(=O)OCC)n1cc(C)c(=O)n(Cc2cn(COCCOC(C)=O)nn2)c1=O`: the concentration for total growth inhibition (TGI) is greater than 59.8 µM in the assay with SK-MEL-5 melanoma; 52.7 µM in the assay on MDA-MB-435; 23.6 µM with CAKI-1 renal; greater than 64.3 µM with T-47D breast; 56.1 µM in the assay on OVCAR-3 ovarian; greater than 70 µM in the assay on RXF 393 renal. In addition, the TGI in the assay with U251 CNS was greater than 73.8 µM; with SF-539 CNS, 38.1 µM; with NCI-H23 lung it was 26.3 µM; with MOLT-4 leukemia it was greater than 61.2 µM.

As for `CC(C)(C)C1(COC(=O)c2ccc(N)cc2)COC1`, the total growth inhibition concentration (TGI) in the assay with SK-MEL-5 melanoma, in the assay with MDA-MB-435, in the assay with CAKI-1 renal, with T-47D breast, with OVCAR-3 ovarian and in the assay with RXF 393 renal was greater than 100 µM in each case. The total growth inhibition concentration (TGI) in the assay on U251 CNS, in the assay with SF-539 CNS, in the assay on NCI-H23 lung and with MOLT-4 leukemia was greater than 100 µM throughout.

Consider `O=C1C=C(Br)c2c(Br)sc(Br)c21`, for which the TGI stood at 31.4 µM with SK-MEL-5 melanoma; 42.9 µM in the assay with MDA-MB-435; 26.6 µM with CAKI-1 renal; 31.4 µM with T-47D breast; 31.4 µM in the assay on OVCAR-3 ovarian; 25.7 µM in the assay on RXF 393 renal. Also, the TGI with U251 CNS was determined as 41.3 µM; in the assay on SF-539 CNS, 18.2 µM; with NCI-H23 lung, 25.6 µM; in the assay on MOLT-4 leukemia it was 12.2 µM.

As to `CC(CO)C1C[C@H](O)[C@@]2(C)CC(=O)C=C(CO)[C@@H]2C1` (stereo not given in full), the TGI in the assay with SK-MEL-5 melanoma, in the assay with MDA-MB-435, with CAKI-1 renal, in the assay with T-47D breast, in the assay with OVCAR-3 ovarian and in the assay with RXF 393 renal was greater than 100 µM in each case. Besides, the TGI in the assay on U251 CNS, in the assay on SF-539 CNS, in the assay on NCI-H23 lung and in the assay on MOLT-4 leukemia was greater than 100 µM throughout.

`Cc1sc(/N=C/c2c[nH]c3ccccc23)c(C#N)c1C`: the concentration for total growth inhibition (TGI) in the assay with SK-MEL-5 melanoma was 53.2 µM; in the assay on MDA-MB-435 it was greater than 100 µM; with CAKI-1 renal it was greater than 100 µM; with T-47D breast it was greater than 100 µM; with OVCAR-3 ovarian, 66.1 µM; in the assay on RXF 393 renal, 74 µM. Further, the concentration for total growth inhibition (TGI) with U251 CNS was 96.4 µM; in the assay with SF-539 CNS, greater than 100 µM; in the assay on NCI-H23 lung, greater than 100 µM; in the assay with MOLT-4 leukemia, greater than 100 µM.

Turning to `C=CCSC1=N/C(=C\c2ccccc2)C(=O)N1CC=C`, the total growth inhibition concentration (TGI) in the assay on SK-MEL-5 melanoma was 37.3 µM; in the assay on MDA-MB-435, greater than 100 µM; in the assay with CAKI-1 renal, greater than 100 µM; with T-47D breast, 98.6 µM; in the assay with OVCAR-3 ovarian, greater than 93.9 µM; with RXF 393 renal it was 60.6 µM. Further, the concentration for total growth inhibition (TGI) was greater than 100 µM in the assay on U251 CNS, greater than 100 µM in the assay on SF-539 CNS, greater than 100 µM in the assay with NCI-H23 lung and 19.1 µM with MOLT-4 leukemia.

Consider `CCCCc1ccc(Nc2ncc3[nH]cnc3n2)cc1`, for which the concentration for total growth inhibition (TGI) with SK-MEL-5 melanoma is 31.1 µM; with MDA-MB-435 it was greater than 100 µM; in the assay with CAKI-1 renal, 36.4 µM; with T-47D breast, 61 µM; with OVCAR-3 ovarian, 28.9 µM; with RXF 393 renal, 49.7 µM. In addition, the TGI with U251 CNS was 60.4 µM; in the assay with SF-539 CNS it was 56.5 µM; in the assay with NCI-H23 lung, 35.4 µM; in the assay on MOLT-4 leukemia, greater than 100 µM.

In the case of `O=C1/C(=C/c2ccccc2[N+](=O)[O-])N=C(c2ccccc2)N1C1Nc2cc3c(cc2S1)NC(N1C(=O)/C(=C/c2ccccc2[N+](=O)[O-])N=C1c1ccccc1)S3` (stereo not given), the TGI in the assay with SK-MEL-5 melanoma, with MDA-MB-435, with CAKI-1 renal, with T-47D breast, in the assay on OVCAR-3 ovarian and in the assay with RXF 393 renal was greater than 100 µM each time. Besides, the total growth inhibition concentration (TGI) in the assay with U251 CNS, with SF-539 CNS, with NCI-H23 lung and with MOLT-4 leukemia was greater than 100 µM in each case.
